This note sets out measurements from patent US10329286B2, “FXR (NR1H4) modulating compounds” (Gilead Sciences, Inc., priority 2016, dated 2019).

Like-named read-outs stand apart in the source and are kept apart here.

The target in assay [1] is human FXR alpha ligand binding domain (Homo sapiens (Human), UniProt Q96RI1). Put plainly: FRET activity assay (LANCE; ligand mediated FXR-LBD / SRC-1 cofactor peptide interaction). In kind it is biochemical. The method, then:
Determination of a ligand mediated cofactor peptide interaction to quantify ligand binding to the nuclear receptor FXR was performed as follows.
Preparation of human FXR alpha ligand binding domain: The human FXRalpha LBD was expressed in E. coli strain BL21(DE3) as an N-terminally GST tagged fusion protein. The DNA encoding the FXR ligand binding domain was cloned into vector pDEST15 (Invitrogen). Expression was under control of an IPTG inducible T7 promoter. The amino acid boundaries of the ligand binding domain were amino acids 187-472 of Database entry NM_005123 (RefSeq).
Expression and purification of the FXR-LBD: An overnight preculture of a transformed E. coli strain was diluted 1:20 in LB-Ampicillin medium and grown at 30° C. to an optical density of OD600=0.4-0.6. Gene expression was then induced by addition of 0.5 mM IPTG. Cells were incubated an additional 6 h at 30° C., 180 rpm. Cells were collected by centrifugation (7000×g, 7 min, rt). Per liter of original cell culture, cells were resuspended in 10 mL lysis buffer (50 mM Glucose, 50 mM Tris pH 7.9, 1 mM EDTA and 4 mg/mL lysozyme) and left on ice for 30 min. Cells were then subjected to sonication and cell debris removed via centrifugation (22000×g, 30 min, 4° C.). Per 10 mL of supernatant 0.5 mL prewashed Glutathione 4B sepharose slurry (Qiagen) was added and the suspension kept slowly rotating for 1 h at 4° C. Glutathione 4B sepharose beads were pelleted by centrifugation (2000×g, 15 sec, 4° C.) and washed twice in wash buffer (25 mM Tris, 50 mM KCl, 4 mM MgCl2 and 1M NaCl). The pellet was resuspended in 3 mL elution buffer per liter of original culture (elution buffer: 20 mM Tris, 60 mM KCl, 5 mM MgCl2 and 80 mM glutathione added immediately prior to use as powder). The suspension was left rotating for 15 min at 4° C., the beads pelleted and eluted again with half the volume of elution buffer than the first time. The eluates were pooled and dialysed overnight in 20 mM Hepes buffer (pH 7.5) containing 60 mM KCl, 5 mM MgCl2 as well as 1 mM dithiothreitol and 10% (v/v) glycerol. The protein was analysed by SDS-Page.
The method measures the ability of putative ligands to modulate the interaction between the purified bacterial expressed FXR ligand binding domain (LBD) and a synthetic biotinylated peptide based on residues 676-700 of SRC-1 (LCD2, 676-700). The sequence of the peptide used was B-[…]-COOH (SEQ ID NO: 1) where the N-terminus was biotinylated (B). The ligand binding domain (LBD) of FXR was expressed as fusion protein with GST in BL-21 cells using the vector pDEST15. Cells were lysed by sonication, and the fusion proteins purified over glutathione sepharose (Pharmacia) according to the manufacturers instructions. For screening of compounds for their influence on the FXR-peptide interaction, the Perkin Elmer LANCE technology was applied. This method relies on the binding dependent energy transfer from a donor to an acceptor fluorophor attached to the binding partner of interest. For ease of handling and reduction of background from compound fluorescence LANCE technology makes use of generic fluorophore labels and time resolved detection.
Assays were done in a final volume of 25 μL in a 384 well plate, in a Tris-based buffer (20 mM Tris-HCl pH 7.5; 60 mM KCl, 5 mM MgCl2; 35 ng/μL BSA), containing 20-60 ng/well recombinantly expressed FXR-LBD fused to GST, 200-600 nM N-terminally biotinylated peptide, representing SRC1 aminoacids 676-700, 200 ng/well Streptavidin-x1APC conjugate (Prozyme) and 6-10 ng/well Eu W1024-antiGST (Perkin Elmer). DMSO content of the samples was kept at 1%. After generation of the assay mix and diluting the potentially FXR modulating ligands, the assay was equilibrated for 1 h in the dark at rt in FIA-plates black 384 well (Greiner). The LANCE signal was detected by a Perkin Elmer VICTOR2VTM Multilabel Counter. The results were visualized by plotting the ratio between the emitted light at 665 and 615 nm. […]
For orientation: In TR-FRET formats the signal depends on donor and acceptor labels being close together.

In assay [2] the target is FXR ligand binding domain (Homo sapiens (Human), UniProt Q96RI1). The experiment in a line: Mammalian one hybrid (M1H) Gal4 reporter gene assay in HEK293 cells. It counts as cell-based. The method, then:
Determination of a ligand mediated Gal4 promoter driven transactivation to quantify ligand binding mediated activation of FXR was performed as follows.
The cDNA part encoding the FXR ligand binding domain was cloned into vector pCMV-BD (Stratagene) as a fusion to the yeast GAL4 DNA binding domain under the control of the CMV promoter. […] The plasmid pFR-Luc (Stratagene) was used as the reporter plasmid, containing a synthetic promoter with five tandem repeats of the yeast GAL4 binding sites, driving the expression of the Photinus pyralis (American firefly) luciferase gene as the reporter gene. In order to improve experimental accuracy the plasmid pRL-CMV (Promega) was cotransfected. pRL-CMV contains the constitutive CMV promoter, controlling the expression of the Renilla reniformis luciferase. All Gal4 reporter gene assays were done in HEK293 cells (obtained from DSMZ, Braunschweig, Germany) grown in MEM with L-Glutamine and Earle's BSS supplemented with 10% fetal bovine serum, 0.1 mM nonessential amino acids, 1 mM sodium pyruvate, and 100 units Penicilin/[…] per mL at 37° C. in 5% CO2. Medium and supplements were obtained from Invitrogen. For the assay, […] cells were plated per well in 96 well plates in 100 μL per well MEM without Phenol Red and L-Glutamine and with Earle's BSS supplemented with 10% charcoal/dextran treated FBS (HyClone, South Logan, Utah), 0.1 mM nonessential amino acids, 2 mM glutamine, 1 mM sodium pyruvate, and 100 units Penicilin/[…] per mL, incubated at 37° C. in 5% CO2. The following day the cells were >90% confluence. […] MEM with the same composition as used for plating cells was added 2-4 h after addition of transfection mixture. Then compound stocks, prediluted in MEM were added (final vehicle concentration not exceeding 0.1%). […] All experiments were done in triplicates.
A general note: A reporter such as luciferase makes a cellular process visible.

[3] abbreviates: GST-FXR-LBD, biotinylated SRC-1 peptide 676-700, read-out: FRET EC50.
Setting [4] is: Gal4-FXR-LBD luciferase reporter, HEK293 cells, 16 h, read-out: M1H EC50.

Chain of human FXR alpha ligand binding domain (Q96RI1 other isoform, or with tags, fused parts or gaps): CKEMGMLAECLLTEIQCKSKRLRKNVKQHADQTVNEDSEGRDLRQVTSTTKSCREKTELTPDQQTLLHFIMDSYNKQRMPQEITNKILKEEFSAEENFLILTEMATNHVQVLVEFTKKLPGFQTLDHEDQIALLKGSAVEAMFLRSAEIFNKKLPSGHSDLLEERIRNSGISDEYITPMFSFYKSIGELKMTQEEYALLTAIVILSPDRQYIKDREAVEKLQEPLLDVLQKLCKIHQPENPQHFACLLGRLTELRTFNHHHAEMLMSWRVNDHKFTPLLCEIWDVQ
Chain of FXR ligand binding domain (Q96RI1 other isoform, or with tags, fused parts or gaps): as above

On to `O=C(O)c1cc(N2CC(O)(c3ccc(OCc4c(-c5c(Cl)cccc5Cl)noc4C4CC4)cc3Cl)C2)nc(C(F)(F)F)c1` [Comparative Compound 3, reference compound], for which the values for the EC50 in assay [1] (setting [3]) and in assay [2] (setting [4]) were 47 nM and 131 nM, respectively.
On the same counts, the results for `COc1cccc(OC)c1-c1noc(C2CC2)c1COc1ccc(C2(O)CN(c3ncc(C(=O)O)cc3F)C2)c(Cl)c1` [Example 8, 6-(3-(2-chloro-4-((5-cyclopropyl-3-(2,6-dimethoxyphenyl)isoxazol-4-yl)methoxy)phenyl)-3-hydroxyazetidin-1-yl)-5-fluoronicotinic acid] are 15 nM and 593 nM.
With `O=C(O)c1cnc(N2CC(O)(c3ccc(OCc4c(-c5c(Cl)cccc5Cl)noc4C4CC4)cc3Cl)C2)c(F)c1` [Example 5, 6-(3-(2-chloro-4-((5-cyclopropyl-3-(2,6-dichlorophenyl)isoxazol-4-yl)methoxy)phenyl)-3-hydroxyazetidin-1-yl)-5-fluoronicotinic acid], the EC50 is 4.8 nM in assay [1] (setting [3]) and 4.5 nM in assay [2] (setting [4]).
As to `Cc1cc(C(=O)O)cnc1N1CC(O)(c2ccc(OCc3c(-c4c(Cl)cccc4Cl)noc3C3CC3)cc2Cl)C1` [Example 4, 6-(3-(2-chloro-4-((5-cyclopropyl-3-(2,6-dichlorophenyl)isoxazol-4-yl)methoxy)phenyl)-3-hydroxyazetidin-1-yl)-5-methylnicotinic acid], the EC50 in assay [1] (setting [3]) stood at 3.9 nM; in assay [2] (setting [4]) it was 5.1 nM.
Take `O=C(O)c1ccc(N2CC(O)(c3ccc(OCc4c(-c5c(Cl)cncc5Cl)noc4C4CC4)cc3Cl)C2)nc1` [Example 1, 6-(3-(2-chloro-4-((5-cyclopropyl-3-(3,5-dichloropyridin-4-yl)isoxazol-4-yl)methoxy)phenyl)-3-hydroxyazetidin-1-yl)nicotinic acid]: the EC50 in assay [1] (setting [3]) came to 6.1 nM; in assay [2] (setting [4]), 95 nM.
`O=C(O)c1cnc(N2CC(O)(c3ccc(OCc4c(-c5c(Cl)cncc5Cl)noc4C4CC4)cc3Cl)C2)c(F)c1` [Example 10, 6-(3-(2-chloro-4-((5-cyclopropyl-3-(3,5-dichloropyridin-4-yl)isoxazol-4-yl)methoxy)phenyl)-3-hydroxyazetidin-1-yl)-5-fluoronicotinic acid]: the EC50 in assay [1] (setting [3]) came out at 3.4 nM; in assay [2] (setting [4]), 6.4 nM.
For the compound `O=C(O)c1ccnc(N2CC(O)(c3ccc(OCc4c(-c5c(Cl)cccc5Cl)noc4C4CC4)cc3Cl)C2)c1` [Comparative Compound 1, reference compound], the EC50 in assay [1] came to 14 nM; in assay [2], 774 nM.
With `Cc1nc(N2CC(O)(c3ccc(OCc4c(-c5c(Cl)cccc5Cl)noc4C4CC4)cc3Cl)C2)ccc1C(=O)O` [Example 3, 6-(3-(2-chloro-4-((5-cyclopropyl-3-(2,6-dichlorophenyl)isoxazol-4-yl)methoxy)phenyl)-3-hydroxyazetidin-1-yl)-2-methylnicotinic acid], the results for the EC50 in assay [1] (setting [3]) and in assay [2] (setting [4]) were 4.4 nM and 6.9 nM, respectively.
`O=C(O)c1ccc(N2CC(O)(c3ccc(OCc4c(-c5c(Cl)cccc5Cl)noc4C4CC4)cc3Cl)C2)nc1` [Example 2, 6-(3-(2-chloro-4-((5-cyclopropyl-3-(2,6-dichlorophenyl)isoxazol-4-yl)methoxy)phenyl)-3-hydroxyazetidin-1-yl)nicotinic acid]: the EC50 in assay [1] (setting [3]) was 2.6 nM; in assay [2] (setting [4]), 7.1 nM.
The matching figures for `O=C(O)c1cnc(N2CC(O)(c3ccc(OCc4c(C5CC5)cnn4-c4c(Cl)cccc4Cl)cc3Cl)C2)c(F)c1` [Example 11, 6-(3-(2-chloro-4-((4-cyclopropyl-1-(2,6-dichlorophenyl)-1H-pyrazol-5-yl)methoxy)phenyl)-3-hydroxyazetidin-1-yl)-5-fluoronicotinic acid]: 3.8 nM and 4.9 nM.
For `O=C(O)c1ccnc(N2CC(O)(c3ccc(OCc4c(-c5c(Cl)cncc5Cl)noc4C4CC4)cc3Cl)C2)c1` [Comparative Compound 2, reference compound], the EC50 in assay [1] (setting [3]) came out at 48 nM; in assay [2] (setting [4]) it was 744 nM.
For the compound `Cc1cc(N2CC(O)(c3ccc(OCc4c(-c5c(Cl)cccc5Cl)noc4C4CC4)cc3Cl)C2)ncc1C(=O)O` [Example 7, 6-(3-(2-chloro-4-((5-cyclopropyl-3-(2,6-dichlorophenyl)isoxazol-4-yl)methoxy)phenyl)-3-hydroxyazetidin-1-yl)-4-methylnicotinic acid], the EC50 in assay [1] (setting [3]) is 8.5 nM; in assay [2] (setting [4]) it was 6.7 nM.
In the case of `Cc1cc(Cl)c(-c2noc(C3CC3)c2COc2ccc(C3(O)CN(c4ncc(C(=O)O)cc4F)C3)c(Cl)c2)c(Cl)c1` [Example 9, 6-(3-(2-chloro-4-((5-cyclopropyl-3-(2,6-dichloro-4-methylphenyl)isoxazol-4-yl)methoxy)phenyl)-3-hydroxyazetidin-1-yl)-5-fluoronicotinic acid], the results for the EC50 in assay [1] (setting [3]) and in assay [2] (setting [4]) were 57 nM and 26 nM, respectively.
As to `O=C(O)c1ccc(N2CC(O)(c3ccc(OCc4c(-c5c(Cl)cccc5Cl)noc4C4CC4)cc3Cl)C2)nc1C(F)(F)F` [Example 6, 6-(3-(2-chloro-4-((5-cyclopropyl-3-(2,6-dichlorophenyl)isoxazol-4-yl)methoxy)phenyl)-3-hydroxyazetidin-1-yl)-2-(trifluoromethyl)nicotinic acid], the EC50 was determined as 3.1 nM in assay [1] (setting [3]) and 56 nM in assay [2] (setting [4]).

For orientation: EC50 means the concentration giving half of the maximal effect.
